SMILES strings stand for the structures.

Here are results for five molecules from US12208098B2, “4-carbonylamino-4-phenylpyrimidine compound or pharmaceutically acceptable salt thereof” (Gachon University Of Industry-Academic Cooperation …, priority 2018, dated 2025).

This test deals with T1, Glutamate Dehydrogenase (GDH) (Rattus norvegicus, UniProt P10860).
T1 construct: only the supernatant was collected and transferred to a new tube to obtain a cell lysate; endogenous in cells; host or cells: INS-1 cell line (lysate)
T1 sequence (P10860 54-558): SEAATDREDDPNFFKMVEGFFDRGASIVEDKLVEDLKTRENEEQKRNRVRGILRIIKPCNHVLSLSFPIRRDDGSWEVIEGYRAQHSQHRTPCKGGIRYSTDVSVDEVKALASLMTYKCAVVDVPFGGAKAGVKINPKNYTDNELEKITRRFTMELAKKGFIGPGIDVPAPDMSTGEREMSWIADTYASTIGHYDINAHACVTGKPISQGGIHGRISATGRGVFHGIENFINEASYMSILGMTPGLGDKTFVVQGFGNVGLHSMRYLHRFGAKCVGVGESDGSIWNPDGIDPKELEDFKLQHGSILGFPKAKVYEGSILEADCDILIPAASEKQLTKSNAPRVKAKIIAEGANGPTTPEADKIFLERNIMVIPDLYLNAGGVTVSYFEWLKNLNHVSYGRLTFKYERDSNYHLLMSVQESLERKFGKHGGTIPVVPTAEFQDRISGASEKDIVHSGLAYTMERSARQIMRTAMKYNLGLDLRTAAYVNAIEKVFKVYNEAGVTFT
Put plainly: Enzyme activation experiment: GDH Activity Colorimetric Assay Kit on INS-1 cell lysate. It counts as biochemical. To be noted: vehicle-treated group set to 1. On the procedure:
Enzyme Activation Experiment
A sufficient amount of cells was obtained by culturing the INS-1 cell line under general cell culture condition (37° C. 5% CO2). Immediately before use in the experiment, a culture dish of the INS-1 cells was placed on ice, the culture medium was removed, and then washed with cold phosphate-buffered saline (PBS) (WELGEME, LB 001-02) to obtain a cell pellet.
To the harvested cell pellet, an appropriate amount of ice-cold Assay Buffer contained in the Glutamate Dehydrogenase (GDH) Activity Colorimetric Assay Kit (BioVision, K729-100) was added and then homogenized in the tube.
The tube was subjected to centrifuge in a condition of 13,000 g, 4° C. for 10 minutes, and then the pellet was discarded, and only the supernatant was collected and transferred to a new tube to obtain a cell lysate. Then, the protein concentration of the cell lysate was measured using Pierce™ BCA Protein Assay kit (Thermo, 23225).
By referring to the measured protein concentration, the cell lysate was prepared by diluting its concentration to 30 μg/50 μL or 100 μg/50 μL using the Assay Buffer.
The prepared cell lysate+vehicle or compound+Reaction mix was added according to the volume determined in the protocol of the Glutamate Dehydrogenase (GDH) Activity Colorimetric Assay Kit and reacted at 37° C., and the absorbance at 450 nm was measured using a kinetic method.
The GDH activity was calculated according to the calculation formula shown in the Assay Kit, and then the activity of the group treated with the vehicle was set to 1, and the folds of the remaining groups were calculated, and the results are shown in Table 2 below and FIG. 1.

As to `Nc1nccc(-c2ccc(NC(=O)c3ccc(Br)cc3)cc2)n1` [Compound 6, N-(4-(2-aminopyrimidin-4-yl)phenyl)-4-bromobenzamide], the “Enzyme activity (fold)” value reads like this: (compound concentration 0.2 μM) 2.14 fold; (compound concentration 2 μM) 6.93 fold.

In the case of `Nc1nccc(-c2ccc(NC(=O)c3ccc(Cl)cc3)cc2)n1` [Compound 8, N-(4-(2-aminopyrimidin-4-yl)phenyl)-4-chlorobenzamide], the “Enzyme activity (fold)” value came to 1.34 fold (compound concentration 0.2 μM) and 11.05 fold (compound concentration 2 μM).

`Nc1nccc(-c2ccc(NC(=O)c3cc(Cl)cc(Cl)c3)cc2)n1` [Compound 9, N-(4-(2-aminopyrimidin-4-yl)phenyl)-3,5-dichlorobenzamide]: the “Enzyme activity (fold)” value is reported as 1.13 fold (compound concentration 0.2 μM) and 6.43 fold (compound concentration 2 μM).

For the molecule `Nc1nccc(-c2ccc(NC(=O)c3cccc(C(F)(F)F)c3F)cc2)n1` [Compound 10, N-(4-(2-aminopyrimidin-4-yl)phenyl)-2-fluoro-3-(trifluoromethyl)benzamide], the “Enzyme activity (fold)” value reads like this: (compound concentration 0.2 μM) 2.08 fold; (compound concentration 2 μM) 10.83 fold.

As for `COc1cc(C(=O)Nc2ccc(-c3ccnc(N)n3)cc2)ccc1Cl` [Compound 7, N-(4-(2-aminopyrimidin-4-yl)phenyl)-4-chloro-3-methoxybenzamide], the “Enzyme activity (fold)” value reads like this: (compound concentration 0.2 μM) 1.94 fold; (compound concentration 2 μM) 3.23 fold.
